Laboratory results reported in patent US12568972B2, “Pyridazinol compounds and derivatives, preparation methods, herbicidal compositions and applications thereof” (Qingdao Kingagroot Chemical Compound Co., Ltd., priority 2018, dated 2026).
Where two headings read alike, the source gives them in different places.

System: weeds
Assay: Control effect and synergistic effect of the mixture of (i) and (ii), postemergence (Gowing method)
Assay type: in vivo
Conditions: for pest or weed control at 30 g/ha: 30 g a.i./ha
From the text: Wherein, in the formula, X represented the fresh weight inhibition rate of the active ingredient A in a dosage of P, and Y represented the fresh weight inhibition rate of the active ingredient B in a dosage of Q. The statistic results are shown in Table 6.

[1] = post-emergence, 480 h, Abutilon theophrasti, postemergence, 20 days after treatment, read-out: Inhibitory effect of component (ii) when applied alone at same dose
[2] = Sisymbrium sophia, 200 g a.i./ha, postemergence, 20 days after treatment
[3] = Abutilon theophrasti, 50 g a.i./ha, postemergence, 20 days after treatment

## CS(=O)(=O)c1ccc(C(=O)C2C(=O)CCCC2=O)c([N+](=O)[O-])c1 [Mesotrione]
[1]
  pest or weed control at 30 g/ha: 40%

## CCn1ncc(C(=O)c2ccc(S(C)(=O)=O)c(COCC(F)(F)F)c2Cl)c1OC(=O)c1cn(C)nc1C [Benzuofucaotong]
Abutilon theophrasti, 15 g a.i./ha, postemergence, 20 days after treatment
  Inhibitory effect of component (ii) when applied alone at same dose: 40%

## COc1c(Cl)ccc(Cl)c1C(=O)O [Dicamba]
Descurainia sophia, post-emergence, 480 h, Sisymbrium sophia, 10 g a.i./ha, postemergence, 20 days after treatment, read-out: Inhibitory effect of component (ii) when applied alone at same dose
  pest or weed control at 10 g/ha: 30%

## Cc1cc(Cl)ccc1OCCCC(=O)O [MCPB]
[2]
  Inhibitory effect of component (ii) when applied alone at same dose: 40%

## Cc1ccc(C(=O)COc2c(C(=O)c3ccc(Cl)c(C)c3Cl)c(C)nn2C)cc1 [Benzofenap]
post-emergence, 480 h, Abutilon theophrasti, 150 g a.i./ha, postemergence, 20 days after treatment, read-out: Inhibitory effect of component (ii) when applied alone at same dose
  pest or weed control at 150 g/ha: 40%

## Fluridone
Abutilon theophrasti, 100 g a.i./ha, postemergence, 20 days after treatment
  Inhibitory effect of component (ii) when applied alone at same dose: 45%

## CS(=O)(=O)c1ccc(C(=O)C2C(=O)CCCC2=O)c(Cl)c1COCC(F)(F)F [Tembotrione]
post-emergence, 480 h, Abutilon theophrasti, 15 g a.i./ha, postemergence, 20 days after treatment, read-out: Inhibitory effect of component (ii) when applied alone at same dose
  pest or weed control at 15 g/ha: 30%

## O=C(O)c1nc(Cl)ccc1Cl [Clopyralid]
post-emergence, 480 h, Galinsoga parviflora, 50 g a.i./ha, postemergence, 20 days after treatment, read-out: Inhibitory effect of component (ii) when applied alone at same dose
  pest or weed control at 50 g/ha: 40%

## O=C(O)COc1nc(Cl)c(Cl)cc1Cl [Trichlopyr]
[3]
  Inhibitory effect of component (ii) when applied alone at same dose: 40%

## O=C(Nc1ccc(F)cc1)c1cccc(Oc2cccc(C(F)(F)F)c2)n1 [Picolinafen]
[3]
  Inhibitory effect of component (ii) when applied alone at same dose: 30%

## COC(=O)c1nc(-c2ccc(Cl)c(OC)c2F)cc(N)c1Cl [Halauxifen-methyl]
Abutilon theophrasti, 2 g a.i./ha, postemergence, 20 days after treatment
  Inhibitory effect of component (ii) when applied alone at same dose: 40%

## O=C1C(Cl)C(CCl)CN1c1cccc(C(F)(F)F)c1 (centres unmarked) [Flurochloridone]
post-emergence, 480 h, Galium aparine, 100 g a.i./ha, postemergence, 20 days after treatment, read-out: Inhibitory effect of component (ii) when applied alone at same dose
  pest or weed control at 100 g/ha: 40%

## CC(C)CCCCCOC(=O)COc1ccc(Cl)cc1Cl [2,4-D iso-octyl ester]
Sisymbrium sophia, 50 g a.i./ha, postemergence, 20 days after treatment
  Inhibitory effect of component (ii) when applied alone at same dose: 40%

## O=C(O)CCCOc1ccc(Cl)cc1Cl [2,4-DB]
[2]
  Inhibitory effect of component (ii) when applied alone at same dose: 50%

## Cc1nn(C)cc1C(=O)Oc1c(C(=O)c2ccc(C(F)(F)F)cc2S(C)(=O)=O)c(C)nn1C [Shuangzuocaotong]
Sisymbrium sophia, 5 g a.i./ha, postemergence, 20 days after treatment
  Inhibitory effect of component (ii) when applied alone at same dose: 40%

## CS(=O)(=O)c1cc(C(F)(F)F)ccc1C(=O)c1cnoc1C1CC1 [Isoxaflutole]
[1]
  pest or weed control at 30 g/ha: 30%

## Cc1cc(Cl)ccc1OC(C)C(=O)O (centres unmarked) [2-methyl 4-chlorophenoxypropionic acid]
Sisymbrium sophia, 100 g a.i./ha, postemergence, 20 days after treatment
  Inhibitory effect of component (ii) when applied alone at same dose: 30%

## Nc1c(Cl)c(F)nc(OCC(=O)O)c1Cl [Fluroxypyr]
post-emergence, 480 h, Galium aparine, postemergence, 20 days after treatment, read-out: Inhibitory effect of component (ii) when applied alone at same dose
  pest or weed control at 30 g/ha: 40%

## O=C(O)c1c(Cl)ccc2cc(Cl)cnc12 [Quinclorac]
post-emergence, 480 h, Galium aparine, 50 g a.i./ha, postemergence, 20 days after treatment, read-out: Inhibitory effect of component (ii) when applied alone at same dose
  pest or weed control at 50 g/ha: 50%

## CNC1=C(c2cccc(C(F)(F)F)c2)C(=O)C(c2ccccc2)O1 (centres unmarked) [Flurtamone]
Galium aparine, post-emergence, 480 h, read-out: Inhibitory effect of component (ii) when applied alone at same dose
  pest or weed control at 100 g/ha: 35%
